Results from patent publication US20110294721A1, “ANTIMICROBIAL PEPTIDES” (priority 2008, published 2011).
No end group written: not given here.

Legend:
Details in all cases: Table 2; for LC (lethal concentration): 100% inhibition after at least 4 days of incubation; for MIC: >90% inhibition, 1-2 days at 25° C.
[1] = system: Pseudomonas corrugata
Description: (§1) In-vitro inhibition assays were performed in sterile flat-bottom 96-well plates (Greiner bio-one, Frickenhausen). Antimicrobial peptides were dissolved in 0.01% acetic acid containing 0.2% BSA (500 μg/ml), filter sterilized and stored at −20° C. For inhibition assays dilutions of peptides ranging from 5 to 200 μg/ml were prepared and 10 μl (antibacterial assay) or 20 μl (antifungal assay) of each concentration was loaded per well.
(§2) Bacteria colonies from overnight agar plate cultures were resuspended into 5 ml LB-medium or HPG-medium (OD600 nm=0.08-0.1) and diluted into LB-medium/HPG-medium (1:100). 90 μl of this suspension containing about 10^5-10^6 CFU/ml of tested bacteria were added to each well resulting in final peptide concentrations of 0, 0.5, 1, 2, 5, 10, and 20 μg/ml. […] The lowest concentration, in which there is no observable growth (>90% inhibition) is referred to as minimal inhibitory concentration (MIC). […] For each peptide concentration two identical inhibition assays were performed.

[2] = system: Xanthomonas vesicatoria; assay: MIC and lethal concentration (LC) assay (Example 3); type: cell-based
Description: as §1, §2

[3] = system: Clavibacter michiganensis; assay: as above; type: cell-based
Description: as §1, §2

[4] = system: Pseudomonas syringae pv. tomato; assay: as above; type: cell-based
Description: as §1, §2

[5] = system: Pectobacterium carotovorum; assay: as above; type: cell-based
Description: as §1, §2

[6] = system: Pseudomonas syringae pv. syringae; assay: as above; type: cell-based
Description: as §1, §2

| Substance | LC (lethal concentration) [1] | MIC [1] | LC (lethal concentration) [2] | MIC [2] | LC (lethal concentration) [3] [µg/mL] | MIC [3] [µg/mL] | LC (lethal concentration) [4] | MIC [4] | LC (lethal concentration) [5] | MIC [5] | LC (lethal concentration) [6] | MIC [6] |
| --- | --- | --- | --- | --- | --- | --- | --- | --- | --- | --- | --- | --- |
| KRRKAIKILKLIAKLIRKKR-NH2 [SP13-8] | 0.5 µg/mL | 0.25 µg/mL | 0.5 µg/mL | 0.1 µg/mL | 0.25 | 0.1 | 10/>10 μg/ml | 10/>10 μg/ml | >10/>10 μg/ml | >10/>10 μg/ml | >10/>10 μg/ml | >10/>10 μg/ml |
| KRRLILRILRLAIRALVKKR-NH2 [SP13-2] | 5.0/5.0 μg/ml | 5.0/5.0 μg/ml | 0.5 µg/mL | 0.25 µg/mL | 1.0 | 0.25 | 10/>10 μg/ml | 10/>10 μg/ml | >10/>10 μg/ml | >10/>10 μg/ml | 10 µg/mL | 5.0 µg/mL |
| KRRLFLFRLFRLFLRLFLKK-NH2 [SP13-12] | 10/>10 μg/ml | 10/>10 μg/ml | 5.0 µg/mL | 2.5 µg/mL | 5.0 | 2.5 | > 10 µg/mL | 5.0 µg/mL | >10/>10 μg/ml | >10/>10 μg/ml | >10/>10 μg/ml | >10/>10 μg/ml |
| KRRILIRILKLIIKLILKKR-NH2 [SP13-5] | 10/>10 μg/ml | 10/>10 μg/ml | 5.0 µg/mL | 1.0 µg/mL | > 10 | 2.5 | 5.0 µg/mL | 2.5 µg/mL | >10/>10 μg/ml | >10/>10 μg/ml | >10/>10 μg/ml | >10/>10 μg/ml |
| KRRLIFRILKLFFRFLVKKR-NH2 [SP13-4] | > 10 µg/mL | 5.0 µg/mL | 2.5/2.5 μg/ml | 2.5/2.5 μg/ml | 2.5 | 1.0 | >10/>10 μg/ml | >10/>10 μg/ml | >10/>10 μg/ml | >10/>10 μg/ml | 10/>10 μg/ml | 10/>10 μg/ml |
| KRRKLAFRAFRFALKAVLKK-NH2 [SP13-13] | 1.0 µg/mL | 0.25 µg/mL | 0.5 µg/mL | 0.25 µg/mL | 2.5 | 0.5 | 5.0 µg/mL | 2.5 µg/mL | >10/>10 μg/ml | >10/>10 μg/ml | 0.5/0.5 μg/ml | 0.5/0.5 μg/ml |
| KRRLALFRAFRLALKSVLKK-NH2 [SP13-10] | 0.5 µg/mL | 0.25 µg/mL | 0.25 µg/mL | 0.1 µg/mL | 0.25 | 0.1 | 1.0/1.0 μg/ml | 1.0/1.0 μg/ml | >10/>10 μg/ml | >10/>10 μg/ml | >10/>10 μg/ml | >10/>10 μg/ml |
| KRRKLIKILKLIIKLIRKKR-NH2 [SP13-6] |  | 2.5 µg/mL | 0.5 µg/mL | 0.1 µg/mL | 1.0 | 0.1 | 5.0 µg/mL | 2.5 µg/mL | >10/>10 μg/ml | >10/>10 μg/ml | 2.5 µg/mL | 1.0 µg/mL |
